In US20180127700A1, “Cell Culture Substrate for Rapid Release and Re-Plating” (priority 2015, published 2018):

Test system: NIH/3T3 mouse embryonic fibroblast cells
Test: Tissue module release/detachment from shape-memory pNIPAAm polymer microbeams upon thermally initiated swelling
Format: cell-based
Parameters: tissue module detachment after microbeam swelling (in words): dose or concentration left out as unconfirmed
Conditions: for effect of treatment on tissue module detachment (in words): all strains tested, pNIPAAm microbeams
Description: NIH/3T3 mouse embryonic fibroblast cells were cultured in 10% NCS growth medium containing 1% antibiotics (10,000 units/ml penicillin and 10,000 μg/ml streptomycin stock solution) at 37° C. in a humidified atmosphere of 5% CO2. To prepare tissue modules, trypsinized fibroblasts were seeded onto the fabricated shape-memory polymer arrays at a density of 500-750 cells/mm^2 and cultured at 37° C. until confluence (24-48 h). Studies of release from low cell density (100 cells/mm^2) were cultured for 24 h.
Rapid release of tissue modules was induced by thermally initiated swelling of the shape-memory polymer beams. 2 ml of cold PBS (4-10° C.) was introduced (1 ml at a time) into the seeded dish containing 2.5 ml of 37° C. medium resulting in cooling to about 27° C. Cell release was monitored via time-lapse image acquisition on a microscope for at least 70 s.
The mode of cell release from shape-memory polymer surfaces was examined by separately treating seeded samples with agents that modulate metabolism, contractility or adhesion.
To investigate the effect of surface strain on attached cells, the concentration of the network crosslinker (MBAm) in the prepolymer solution was varied from 1 to 4% before MIMIC processing. The one-dimensional width-wise strain in each microbeam was calculated from phase contrast micrographs as follows: […]
where ε is the Cauchy strain, Wcollapsed is the width of the polymer beam in the collapsed state and Wswollen is the width of the polymer beam in the swollen state. Cell detachment was calculated as the percent of cells released from the microbeams within 3 min after thermal stimulation.

Compound	cell release after initiating shape change (in words) (2 mM DTSSP for 30 min prior to release, within 5 min of initiating shape change)	effect of treatment on tissue module detachment (in words)	tissue module detachment after microbeam swelling (in words) (Y-27632 for 30 min prior to release, large strains (ε>0.25))
O=C(CCSSCCC(=O)ON1C(=O)CC(S(=O)(=O)O)C1=O)ON1C(=O)CC(S(=O)(=O)O)C1=O (stereo not shown) [DTSSP, 3,3′-dithiobissulfosuccinimidylpropionate]	significant cell release was not observed	prevented tissue module detachment	–
C[C@@H](N)[C@H]1CC[C@H](C(=O)Nc2ccncc2)CC1 [Y-27632]	–	prevented tissue module detachment	primarily remained attached
